In the OligoGym collection:
HELM strings list units from the 5' end as sugar, base in round brackets, then linkage (d deoxyribose, r ribose, m 2'-O-methyl, p phosphodiester). Strings are as the collection lists them, not checked against the first reports. ss, as = sense and antisense strand; [lna] = locked nucleic acid (LNA); [una] = unlocked nucleic acid; [hna] = hexitol nucleic acid; [s4r] = 4'-thioribose; [fl2r] = 2'-fluoro

conditions: siRNA
Further: test system not given here.

Substance	target mRNA knockdown
RNA1{r(G)p.r(A)p.r(A)p.r(G)p.r(A)p.r(G)p.r(C)p.r(C)p.m(U)p.r(A)p.m(C)p.r(A)p.r(C)p.r(A)p.r(A)p.r(C)p.r(C)p.r(C)p.r(U)p.r(T)p.r(T)}|RNA2{r(A)p.r(G)p.r(G)p.r(G)p.r(U)p.r(U)p.r(G)p.m(U)p.r(G)p.m(U)p.r(A)p.r(G)p.r(G)p.r(C)p.r(U)p.r(C)p.r(U)p.r(U)p.r(C)p.r(T)p.r(T)}$$$RNA1{StrandType:ss}|RNA2{StrandType:as}$	76%
RNA1{m(U)p.r(U)p.m(A)p.r(A)p.m(G)p.r(G)p.m(A)p.r(G)p.m(A)p.r(A)p.m(G)p.r(C)p.m(U)p.r(G)p.m(A)p.r(C)p.m(G)p.r(G)p.m(C)p.r(T)p.r(T)}|RNA2{r(G)p.r(C)p.r(C)p.r(G)p.r(U)p.r(C)p.r(A)p.r(G)p.r(C)p.r(U)p.r(U)p.r(C)p.r(U)p.r(C)p.r(C)p.r(U)p.r(U)p.r(A)p.r(A)p.r(T)p.r(T)}$$$RNA1{StrandType:ss}|RNA2{StrandType:as}$	24%
RNA1{m(A)p.m(A)p.m(G)p.r(G)p.r(A)p.r(G)p.r(A)p.r(U)p.r(C)p.r(A)p.r(A)p.r(C)p.r(A)p.r(U)p.r(U)p.r(U)p.r(U)p.r(C)p.r(A)p.r(T)p.r(T)}|RNA2{m(U)p.m(G)p.m(A)p.r(A)p.r(A)p.r(A)p.r(U)p.r(G)p.r(U)p.r(U)p.r(G)p.r(A)p.r(U)p.r(C)p.r(U)p.r(C)p.r(C)p.r(U)p.r(U)p.r(T)p.r(T)}$$$RNA1{StrandType:ss}|RNA2{StrandType:as}$	60%
RNA1{r(G)p.r(A)p.r(G)p.r(G)p.r(A)p.r(A)p.r(G)p.r(A)p.m(U)p.r(G)p.r(A)p.r(G)p.r(U)p.r(U)p.r(G)p.r(U)p.r(A)p.r(C)p.r(C)p.r(T)p.r(T)}|RNA2{r(G)p.r(G)p.r(U)p.r(A)p.m(C)p.r(A)p.r(A)p.r(C)p.r(U)p.m(C)p.r(A)p.r(U)p.r(C)p.r(U)p.r(U)p.r(C)p.r(C)p.r(U)p.r(C)p.r(T)p.r(T)}$$$RNA1{StrandType:ss}|RNA2{StrandType:as}$	77%
RNA1{[lna](G)p.r(C)p.r(A)p.r(G)p.r(C)p.r(A)p.r(C)p.r(G)p.r(A)p.r(C)p.r(U)p.r(U)p.r(C)p.r(U)p.r(U)p.r(C)p.r(A)p.r(A)p.r(G)p.r(U)p.r(U)}|RNA2{r(C)p.[fl2r](U)p.r(U)p.r(G)p.r(A)p.r(A)p.r(G)p.r(A)p.r(A)p.r(G)p.r(U)p.r(C)p.r(G)p.r(U)p.r(G)p.r(C)p.r(U)p.r(G)p.r(C)p.r(U)p.r(U)}$$$RNA1{StrandType:ss}|RNA2{StrandType:as}$	69.3%
RNA1{r(U)p.r(A)p.r(C)p.r(C)p.r(G)p.r(A)p.r(G)p.r(A)p.r(A)p.r(U)p.r(G)p.m(A)p.r(G)p.m(C)p.r(C)p.m(U)p.r(G)p.m(A)p.r(U)p.r(T)p.r(T)}|RNA2{m(A)p.r(U)p.m(C)p.r(A)p.m(G)p.r(G)p.m(C)p.r(U)p.m(C)p.r(A)p.m(U)p.r(U)p.m(C)p.r(U)p.m(C)p.r(G)p.m(G)p.r(U)p.m(A)p.r(T)p.r(T)}$$$RNA1{StrandType:ss}|RNA2{StrandType:as}$	23%
RNA1{[s4r](C)p.[s4r](G)p.r(U)p.r(A)p.r(C)p.r(G)p.r(C)p.r(G)p.r(G)p.r(A)p.r(A)p.r(U)p.r(A)p.r(C)p.r(U)p.r(U)p.r(C)p.[s4r](G)p.[s4r](A)p.r(T)p.r(T)}|RNA2{[s4r](U)p.[s4r](C)p.r(G)p.r(A)p.r(A)p.r(G)p.r(U)p.r(A)p.r(U)p.r(U)p.r(C)p.r(C)p.r(G)p.r(C)p.r(G)p.r(U)p.r(A)p.[s4r](C)p.[s4r](G)p.r(T)p.r(T)}$$$RNA1{StrandType:ss}|RNA2{StrandType:as}$	85.3%
RNA1{[s4r](A)p.[s4r](A)p.[s4r](A)p.[s4r](C)p.r(A)p.r(U)p.r(G)p.r(C)p.r(A)p.r(G)p.r(A)p.r(A)p.r(A)p.r(A)p.r(U)p.[s4r](G)p.[s4r](C)p.[s4r](U)p.[s4r](G)p.r(T)p.r(T)}|RNA2{r(C)p.r(A)p.r(G)p.r(C)p.r(A)p.r(U)p.r(U)p.r(U)p.r(U)p.r(C)p.r(U)p.r(G)p.r(C)p.r(A)p.r(U)p.r(G)p.r(U)p.[s4r](U)p.[s4r](U)p.r(T)p.r(T)}$$$RNA1{StrandType:ss}|RNA2{StrandType:as}$	85.5%
RNA1{r(G)p.r(U)p.r(A)p.r(U)p.r(G)p.r(A)p.r(C)p.r(C)p.r(G)p.r(A)p.r(C)p.r(U)p.r(A)p.r(C)p.r(G)p.r(C)p.r(G)p.r(U)p.r(A)p.r(T)p.r(T)}|RNA2{r(U)p.r(U)p.r(C)p.r(A)p.r(G)p.r(U)p.r(G)p.r(U)p.r(G)p.r(A)p.r(U)p.r(G)p.r(A)p.r(C)p.r(A)p.r(C)p.r(U)p.r(U)p.r(G)p.[una](T)p.[una](T)}$$$RNA1{StrandType:ss}|RNA2{StrandType:as}$	81%
RNA1{[lna](T)p.r(G)p.r(A)p.r(G)p.r(A)p.r(G)p.r(A)p.r(A)p.r(A)p.r(G)p.r(C)p.r(A)p.r(C)p.r(A)p.r(G)p.r(A)p.r(A)p.r(A)p.r(A)p.[lna](T)p.[lna](T)}|RNA2{r(U)p.r(U)p.r(U)p.r(U)p.r(C)p.r(U)p.r(G)p.r(U)p.r(G)p.r(C)p.r(U)p.r(U)p.r(U)p.r(C)p.r(U)p.r(C)p.r(U)p.r(C)p.r(A)p.r(T)p.r(T)}$$$RNA1{StrandType:ss}|RNA2{StrandType:as}$	74%
RNA1{r(G)p.r(C)p.r(U)p.r(U)p.r(U)p.m(A)p.r(A)p.r(G)p.r(G)p.r(A)p.r(A)p.r(C)p.m(U)p.r(G)p.r(G)p.r(A)p.r(A)p.r(G)p.r(G)p.r(T)p.r(T)}|RNA2{r(C)p.r(C)p.r(U)p.r(U)p.r(C)p.m(C)p.r(A)p.r(G)p.r(U)p.r(U)p.r(C)p.r(C)p.r(U)p.r(U)p.r(A)p.r(A)p.r(A)p.r(G)p.r(C)p.r(T)p.r(T)}$$$RNA1{StrandType:ss}|RNA2{StrandType:as}$	74%
RNA1{r(U)p.r(U)p.r(C)p.[fl2r](U)p.r(A)p.r(A)p.r(C)p.r(C)p.r(G)p.r(G)p.r(G)p.r(C)p.r(A)p.r(G)p.r(C)p.r(U)p.r(U)p.r(C)p.r(U)p.r(T)p.r(T)}|RNA2{r(A)p.r(G)p.r(A)p.r(A)p.r(G)p.r(C)p.r(U)p.r(G)p.r(C)p.r(C)p.r(C)p.r(G)p.r(G)p.r(U)p.[fl2r](U)p.r(A)p.r(G)p.r(A)p.r(A)p.r(T)p.r(T)}$$$RNA1{StrandType:ss}|RNA2{StrandType:as}$	72%
RNA1{r(C)p.r(U)p.r(U)p.r(A)p.r(C)p.r(G)p.r(C)p.r(U)p.r(G)p.r(A)p.r(G)p.r(U)p.r(A)p.r(C)p.r(U)p.r(U)p.r(C)p.r(G)p.r(A)p.r(T)p.r(T)}|RNA2{r(U)p.r(C)p.r(G)p.r(A)p.r(A)p.r(G)p.r(U)p.r(A)p.r(C)p.r(U)p.r(C)p.r(A)p.r(G)p.r(C)p.r(G)p.r(U)p.[lna](A)p.r(A)p.r(G)p.r(T)p.r(T)}$$$RNA1{StrandType:ss}|RNA2{StrandType:as}$	93%
RNA1{r(A)p.r(A)p.r(C)p.r(U)p.r(C)p.r(U)p.r(A)p.r(C)p.[fl2r](U)p.r(G)p.r(U)p.r(G)p.r(G)p.r(A)p.r(G)p.r(U)p.r(C)p.r(G)p.r(G)p.r(T)p.r(T)}|RNA2{r(C)p.r(C)p.r(G)p.r(A)p.r(C)p.r(U)p.r(C)p.[fl2r](C)p.r(A)p.r(C)p.r(A)p.r(G)p.[fl2r](U)p.r(A)p.r(G)p.r(A)p.r(G)p.r(U)p.r(U)p.r(T)p.r(T)}$$$RNA1{StrandType:ss}|RNA2{StrandType:as}$	72%
RNA1{r(C)p.r(G)p.r(U)p.r(A)p.r(C)p.r(G)p.r(C)p.r(G)p.r(G)p.r(A)p.r(A)p.r(U)p.r(A)p.r(C)p.r(U)p.r(U)p.r(C)p.r(G)p.r(A)p.r(T)p.r(T)}|RNA2{r(U)p.r(C)p.r(G)p.r(A)p.r(A)p.r(G)p.[s4r](U)p.[s4r](A)p.[s4r](U)p.[s4r](U)p.[s4r](C)p.[s4r](C)p.[s4r](G)p.r(C)p.r(G)p.r(U)p.r(A)p.r(C)p.r(G)p.r(T)p.r(T)}$$$RNA1{StrandType:ss}|RNA2{StrandType:as}$	36.5%
RNA1{r(A)p.r(G)p.[fl2r](U)p.r(A)p.r(A)p.r(U)p.r(C)p.r(C)p.r(G)p.r(G)p.r(A)p.r(C)p.r(U)p.[fl2r](C)p.r(A)p.r(A)p.r(C)p.r(U)p.r(C)p.r(T)p.r(T)}|RNA2{r(G)p.r(A)p.r(G)p.r(U)p.[fl2r](U)p.r(G)p.r(A)p.r(G)p.r(U)p.r(C)p.r(C)p.r(G)p.r(G)p.r(A)p.r(U)p.[fl2r](U)p.r(A)p.r(C)p.r(U)p.r(T)p.r(T)}$$$RNA1{StrandType:ss}|RNA2{StrandType:as}$	68%
RNA1{r(C)p.r(U)p.r(G)p.r(A)p.r(C)p.r(C)p.r(G)p.r(G)p.r(A)p.r(A)p.r(G)p.r(C)p.r(G)p.r(C)p.r(U)p.m(U)p.r(A)p.r(A)p.r(A)p.r(T)p.r(T)}|RNA2{r(U)p.r(U)p.m(U)p.r(A)p.r(A)p.r(G)p.r(C)p.r(G)p.r(C)p.r(U)p.r(U)p.r(C)p.r(C)p.r(G)p.r(G)p.r(U)p.r(C)p.r(A)p.r(G)p.r(T)p.r(T)}$$$RNA1{StrandType:ss}|RNA2{StrandType:as}$	86%
RNA1{r(G)p.r(A)p.r(C)p.r(G)p.[hna](U)p.r(A)p.r(A)p.[hna](A)p.r(C)p.r(G)p.[hna](G)p.r(C)p.r(C)p.[hna](A)p.r(C)p.r(A)p.r(A)p.r(G)p.r(U)p.[hna](U)p.d(T)}|RNA2{r(A)p.r(C)p.[hna](U)p.r(U)p.r(G)p.r(U)p.r(G)p.r(G)p.r(C)p.r(C)p.r(G)p.r(U)p.r(U)p.r(U)p.r(A)p.r(C)p.r(G)p.[hna](U)p.[hna](C)p.[hna](G)p.d(T)}$$$RNA1{StrandType:ss}|RNA2{StrandType:as}$	25.2%
RNA1{r(C)p.r(U)p.r(U)p.r(A)p.r(C)p.r(G)p.r(C)p.r(U)p.r(G)p.r(A)p.r(G)p.r(U)p.r(A)p.r(C)p.r(U)p.r(U)p.r(C)p.r(G)p.r(A)p.r(T)p.r(T)}|RNA2{r(U)p.r(C)p.[lna](G)p.r(A)p.r(A)p.r(G)p.r(U)p.r(A)p.r(C)p.r(U)p.r(C)p.r(A)p.r(G)p.r(C)p.r(G)p.r(U)p.r(A)p.r(A)p.r(G)p.r(T)p.r(T)}$$$RNA1{StrandType:ss}|RNA2{StrandType:as}$	82%
RNA1{r(G)p.r(G)p.r(A)p.r(C)p.m(U)p.r(A)p.r(C)p.m(U)p.r(A)p.r(A)p.r(C)p.r(C)p.r(U)p.r(C)p.m(C)p.r(A)p.r(G)p.r(U)p.r(U)p.r(T)p.r(T)}|RNA2{r(A)p.r(A)p.r(C)p.m(U)p.r(G)p.r(G)p.r(A)p.r(G)p.r(G)p.r(U)p.m(U)p.r(A)p.r(G)p.m(U)p.r(A)p.r(G)p.r(U)p.r(C)p.r(C)p.r(T)p.r(T)}$$$RNA1{StrandType:ss}|RNA2{StrandType:as}$	69%
